The test system of series [1] is patients suffering from advanced Parkinson's disease with severe levodopa-induced dyskinesias.
Experimental: The patients were given optimal anti-parkinsonian drug treatment during the three months prior to the clinical trial. Duration of study was six weeks. First two weeks served to accumulate baseline data. Patients filled up dyskinesias diaries in which they marked at every waking hour whether involuntary movements were present and their severity (mild/moderate and severe). […] The dose was then increased to 25 mg, b.i.d. for additional four days (once in the morning and once in the early afternoon). The dose as then further increased to two 50 mg tablets (total of 100 mg. daily) which the patients took for three additional weeks. They continued to fill up their dyskinesias diaries throughout the trial period.
A further series relates to baboons. The settings on record: induced by 3-nitropropionic acid, Palfi et al. 1997; cited from earlier work.

Regarding `Nc1nc2ccc(OC(F)(F)F)cc2s1` [Riluzole, 2-amino-6-trifluoromethoxy benzothiazole], in series [1] (riluzole up to 50 mg b.i.d.), the Adverse effects entry was “no report of adverse-effects” and the Tolerability entry was “well-tolerated”. Further, in series [1] (when patients took riluzole), the “Efficacy of levodopa and other anti-parkinsonian drugs and total daily time spent in "on" periods” value is “no decrease”; the “Worsening of the parkinsonian signs and symptoms” value is “no worsening”. In addition, the Abnormal motor movement entry in the series with baboons is given as “reduces various abnormal motor movement”.
